Reference: PubChem BioAssay (NCI)
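Each compound was tested at five concentrations against cells in 96-well plates for 48 hours. TGI is the concentration that stops growth completely.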

Columns and labels:
Test in all cases: NCI anticancer screen, dose series, 48 h
ACHN renal = tested on: ACHN renal
BT-549 breast = tested on: BT-549 breast
DU-145 prostate = tested on: DU-145 prostate
HCT-15 colon = tested on: HCT-15 colon
HOP-92 NSCLC = tested on: HOP-92 NSCLC
IGROV1 ovarian = tested on: IGROV1 ovarian
NCI-H23 lung = tested on: NCI-H23 lung
OVCAR-3 ovarian = tested on: OVCAR-3 ovarian
OVCAR-4 ovarian = tested on: OVCAR-4 ovarian
SF-295 CNS = tested on: SF-295 CNS
SN12C renal = tested on: SN12C renal
UACC-257 melanoma = tested on: UACC-257 melanoma
UACC-62 melanoma = tested on: UACC-62 melanoma

| SMILES | TGI (ACHN renal) | TGI (BT-549 breast) | TGI (DU-145 prostate) | TGI (HCT-15 colon) | TGI (HOP-92 NSCLC) | TGI (IGROV1 ovarian) | TGI (NCI-H23 lung) | TGI (OVCAR-3 ovarian) | TGI (OVCAR-4 ovarian) | TGI (SF-295 CNS) | TGI (SN12C renal) | TGI (UACC-257 melanoma) | TGI (UACC-62 melanoma) |
| --- | --- | --- | --- | --- | --- | --- | --- | --- | --- | --- | --- | --- | --- |
| C=CCN1C(=O)N/C(=C\c2ccc(Cl)cc2)C1=O | > 100 µM | > 100 µM | > 100 µM | > 100 µM | > 100 µM | > 100 µM | > 100 µM | > 100 µM | > 100 µM | > 100 µM | > 100 µM | > 100 µM | > 100 µM |
| Cc1cc(Cl)ccc1NC(=O)/C(CC(=O)CC(c1ccccc1)c1c(O)c2ccccc2oc1=O)=N\O (stereo unspecified) | > 100 µM | > 100 µM | > 100 µM | > 100 µM | > 100 µM | > 100 µM | > 100 µM | > 100 µM | > 100 µM | > 100 µM | > 100 µM | > 100 µM | > 100 µM |
| c1ccc2c(OCC3CO3)ccc(OCC3CO3)c2c1 (stereo unspecified) | 6.48 µM | 18.8 µM | 5.47 µM | 14.9 µM | 18.4 µM | 16 µM | 6.67 µM | 6.75 µM | 21 µM | 14.1 µM | 11.5 µM | 20 µM | 12.2 µM |
| CC(C)[Si](OCC/C=C/C1CCC(=O)C1C(O)C1CCCCC1)(C(C)C)C(C)C (stereo unspecified) | 27.9 µM | 34.1 µM | 32 µM | 30.6 µM | 27.7 µM | 28.5 µM | 29 µM | 30.9 µM | 38.6 µM | 31.8 µM | 34.4 µM | 29.5 µM | 29.7 µM |
| CCOC(=O)c1c(-c2ccc(Cl)cc2)c(C#N)c(=S)n(C2OC(CO)C(O)C(O)C2O)c1-c1ccccc1 (stereo unspecified) | > 100 µM | 61.3 µM | > 100 µM | 85.6 µM | 42.6 µM | > 100 µM | 72.7 µM | 37.9 µM | > 100 µM | 40.3 µM | > 100 µM | 62.9 µM | 38.2 µM |
| Cc1ccc(S(=O)(=O)Oc2coc(CO)cc2=O)cc1 | 38.2 µM | 39.2 µM | 27.1 µM | > 49.5 µM | 39.6 µM | 34.5 µM | 35.3 µM | 31.9 µM | 32.3 µM | 31.3 µM | 25.3 µM | 43.4 µM | 25.3 µM |
| COc1ccc2c(c1)-c1c(c3ccccc3n1CCN1CCCCC1)CC2 | > 100 µM | > 71 µM | > 100 µM | 27.7 µM | 54.4 µM | 41.9 µM | 38.8 µM | 26.1 µM | > 100 µM | 34.4 µM | > 83.9 µM | 54.9 µM | 36.5 µM |
| COc1c(C(CC(C)C)OC(C)=O)ccc2c1C(=O)OCc1cc(C)cc(O)c1O2 (stereo unspecified) | 23.2 µM | 30 µM | 25.8 µM | 23.5 µM | 24.5 µM | 30.4 µM | 23.3 µM | 22.3 µM | 27.1 µM | 27.8 µM | 27.2 µM | 21.6 µM | 25.5 µM |
| CCC1=NC(N/N=C/c2ccccc2O)=N/C1=C\c1ccccc1O | 29.5 µM | > 53.7 µM | > 64.7 µM | 12.6 µM | > 84 µM | 56.9 µM | > 74.7 µM | 12.6 µM | > 31.3 µM | > 100 µM | > 83 µM | > 100 µM | 48.4 µM |
| Cc1ccc2nc(CN3CCCCC3)cc(=O)n2c1 | > 100 µM | > 100 µM | > 100 µM | > 100 µM | > 100 µM | > 100 µM | > 100 µM | > 100 µM | > 100 µM | > 100 µM | > 100 µM | > 100 µM | > 100 µM |
| COC(=O)C(Cc1ccccc1)C(=O)NC(CNC(=O)OCc1ccccc1)C(=O)OCc1ccccc1 (stereo unspecified) | > 100 µM | > 100 µM | > 100 µM | > 100 µM | > 72.3 µM | > 100 µM | > 100 µM | 48.7 µM | > 100 µM | > 100 µM | > 100 µM | 34.7 µM | 49.3 µM |
| COc1ccc2cc(CNCCCN3CCN(CCCNCc4ccc5cc(OC)ccc5c4)CC3)ccc2c1 | 3.19 µM | 3.26 µM | 2.88 µM | 3.01 µM | 2.82 µM | 3.12 µM | 3.5 µM | 3.02 µM | 3.48 µM | 3.34 µM | 3.11 µM | 3.86 µM | 1.36 µM |
| O=C(O)c1ccccc1C(=O)OCC1CCCN2CCCCC12 (stereo unspecified) | > 100 µM | > 100 µM | > 100 µM | > 100 µM | > 100 µM | > 100 µM | > 100 µM | > 100 µM | > 100 µM | > 100 µM | > 100 µM | > 100 µM | > 100 µM |
| c1ccc2c(c1)n1c(N3CCOCC3)[n+]3ccccc3c1c1c3cccc[n+]3c(N3CCOCC3)n21 | > 100 µM | > 100 µM | > 100 µM | > 100 µM | > 100 µM | > 100 µM | > 100 µM | > 100 µM | > 100 µM | > 100 µM | > 100 µM | > 100 µM | > 100 µM |
| C=C(CO)[C@H]1CC/C(C)=C/CC/C(C)=C/C/C=C(\C)[C@H](O)C1 | 69.7 µM | 44.2 µM | > 100 µM | > 100 µM | 39.5 µM | 36.1 µM | 86.9 µM | 93.6 µM | > 100 µM | > 100 µM | 81.7 µM | 39.7 µM | 58.4 µM |
| CCN(CC)CCN1CCN=c2c3cc(OC)ccc3n3cnc4ccc1c2c43 | 3.61 µM | 3.26 µM | 4.39 µM | 1.9 µM | 4.42 µM | 2.45 µM | 4.61 µM | 3.26 µM | 1.26 µM | 2.32 µM | 3.38 µM | 3.74 µM | 7.3 µM |
| O=c1[nH]c2nccn2c(Cl)c1Br | 70.1 µM | 47.2 µM | > 100 µM | 33.2 µM | 78.7 µM | 45.4 µM | 36.3 µM | 35.7 µM | 34.9 µM | > 100 µM | 67.5 µM | 45.7 µM | 43.3 µM |
